Source: patent US20250041571A1, “DRUG COATED MEDICAL DEVICES” (Vanderbilt University, priority 2023, published 2025)
Entries after “also recorded” stand apart in the source; their conditions may differ.

What was measured:
[1] = Balloon loading and release quantification (3 min PBS soak, DMSO strip, fluorescence); format: physicochemical
Procedure: Balloon loading and release quantification: Angioplasty balloons (2.5 mm×20 mm) were coated with PPAA and MK2i-568 and then soaked in PBS with calcium and magnesium for 3 minutes to measure balloon release. The balloons were then soaked again in DMSO under sonication for 3 minutes to remove any remaining MK2i layers. The fluorescence of the PBS and DMSO solutions was measured on a TECAN Infinite M1000 Pro plate reader and compared to a standard curve of MK2i-568 in PBS and DMSO, respectively.
Balloon Loading and Release: Balloon release and total loading was quantified for different lactosucrose (LS) coating conditions. […] The fluorescence of these two solutions was then measured and used to quantify MK2i concentration (FIG. 5B and FIG. 5C).
Increasing balloon loading and release: To increase the amount of MK2i loaded onto and released from the balloons, two strategies were compared. […] Loading and release were measured as before—3 min wash in PBS followed by sonication in DMSO. The solution fluorescence was measured to determine loading and release.
Balloon loading and release quantification: Angioplasty balloons (2.5 mm×20 mm, Maverick OTW, Boston Scientific) were coated with PPAA and MK2i-568 and then soaked in PBS with calcium and magnesium for 3 minutes to measure balloon release. […]

ex vivo rat aortas [2] = experiment: MK2i transfer from coated balloons to ex vivo rat aorta (confocal fluorescence, tissue lysate fluorescence); format: in vitro ADME
Procedure: Aorta treatment: Harvested aortas were damaged with an angioplasty balloon prior to treatment (3×, 15 seconds each, 25% overstretch). Coated balloons were then inserted into the aorta and pressurized for 3 minutes in DMEM (+HEPES, +L-glutamine, +3% FBS, +1% Antibiotic/Antimycotic), with deflation and reinflation at each minute mark to allow for maximum release and tissue transfer. After 3 minutes, the balloon was deflated and removed. The treated artery was then washed briefly with DMEM to remove excess MK2i and then processed for further experimentation or data collection. […]
Delivery visualization and quantification: Immediately after aorta treatment, samples were placed into OCT and frozen for cryosectioning. […] Then, total intensity of MK2i-568 within the arterial wall was calculated by subtracting the intensity of the inside segment from the intensity of the total segment. […]
MK2i Delivery and Retention Quantification: Tissue lysates prepped for western blotting were measured for presence of fluorescently labeled MK2i to quantify tissue delivery and retention. Tissue lysate fluorescence was measured on a TECAN Infinite M1000 Pro plate reader and compared to a standard curve of fluorescent MK2i to calculate tissue MK2i concentration. […]

[3] = tested on: cells of ex vivo rat aortas (isolated SMCs); experiment: Cellular uptake of fluorescent MK2i in treated rat aortas by flow cytometry; format: cell-based; settings: flow cytometry 1 hour after treatment
Procedure: Flow Cytometry: After aorta treatment, samples were incubated in DMEM (+HEPES, +L-glutamine, +3% FBS, +1% Antibiotic/Antimycotic) for 1 hour to allow for cell uptake. The aortas were subsequently transferred to 500 μL of cold PBS+1% FBS and cut with scissors into small (˜1 mm) sized pieces. Digestion media in DMEM was then added to the PBS/tissue tube (500 μL) to achieve a final enzyme concentration of 0.7 mg/mL liberase, 4 mg/mL collagenase, and 0.2 mg/mL DNase and the tubes were placed in a 37° C. incubator on a shaker for ˜90 minutes or until digestion was apparent. After incubation, the samples were filtered through a 70 μm cell strainer and centrifuged at 500 g for 8 minutes. […] Cells were read for fluorescence on a Guava easyCyte HT and the resulting data was processed in FlowJo.
MK2i tissue transfer and cell uptake: Coated balloons (6 layers, 100 μM MK2i, 10 μM PPAA) were inflated in ex vivo rat aortas for 3 minutes and samples were cryosectioned to visualize fluorescent MK2i delivery (FIG. 9A, FIG. 9B, and FIG. 9C). ROIs were drawn around the vessel wall and total MK2i fluorescence was normalized to vessel wall cross sectional area. […] Cellular uptake was also measured with flow cytometry, quantifying cellular association of fluorescent MK2i within the treated tissue. […]

ex vivo rat aortas [4] = experiment: Immunofluorescence of balloon damaged rat aortas after 7 d in flow loop bioreactor; format: cell-based; settings: 7 d after balloon injury

OC[C@H]1O[C@@H](O[C@H]2[C@H](O)[C@@H](O)[C@@H](O[C@]3(CO)O[C@H](CO)[C@@H](O)[C@@H]3O)O[C@@H]2CO)[C@H](O)[C@@H](O)[C@H]1O [LS, lactosucrose]
MK2i release from balloon ([1]; 3 minutes in PBS): did not yield any differences
MK2i loading (comparison in words) ([1]; between coating conditions): did not yield any differences
MK2i transfer to the tissue (fluorescence in vessel wall) (ex vivo rat aortas [2]; immediately after 3 min balloon inflation): benefited; also recorded: increased MK2i transfer to the tissue
depth of MK2i delivery into the vessel wall (intensity profile) (ex vivo rat aortas [2]; immediately after balloon inflation): modest effect on increasing the depth of delivery
cellular / intracellular uptake of MK2i [3]: benefited; also recorded: significantly increased the intracellular uptake

MAPKAP Kinase II inhibitory peptide [MK2i]
MYH expression (ex vivo rat aortas [4]): preserving expression
SM22 expression (ex vivo rat aortas [4]): preserving expression
